Reference: ChEMBL document CHEMBL3600375, “Anti-Plasmodium falciparum activity of quinoline-sulfonamide hybrids” (Bioorg Med Chem, 2015)

Assays:
Plasmodium falciparum = assay: Antiplasmodial activity against chloroquine and sulfadoxine-resistant and mefloquine-sensitive Plasmodium falciparum W2 infected in human erythrocytes by anti-HRP2 assay; assay type: functional, organism-based
[1] = Cytotoxicity against African green monkey BGM cells incubated for 18 hrs by neutral red assay; assay type: cell-based; conditions: chlorocebus aethiops, read-out: MLC50
[2] = Selectivity index, ratio of MLC50 for African green monkey BGM cells to IC50 for chloroquine and sulfadoxine-resistant and mefloquine-sensitive Plasmodium falciparum W2; assay type: toxicity, cell-based; conditions: read-out: Selectivity Index
Plasmodium berghei [3] = assay: Antiplasmodial activity against Plasmodium berghei NK65 infected in mouse assessed as inhibition of inhibition of parasitemia at 10 mg/kg, po treated for 3 consecutive days 24 hrs after parasite infection and measured on day 5 after inoculation by Giemsa staining based microscopy; assay type: functional
Plasmodium berghei [4] = assay: Antiplasmodial activity against Plasmodium berghei NK65 infected in mouse assessed as inhibition of inhibition of parasitemia at 10 mg/kg, po treated for 3 consecutive days 24 hrs after parasite infection and measured on day 7 after inoculation by Giemsa staining based microscopy; assay type: functional
Plasmodium berghei [5] = assay: Antiplasmodial activity against Plasmodium berghei NK65 infected in mouse assessed as inhibition of inhibition of parasitemia at 20 mg/kg, po treated for 3 consecutive days 24 hrs after parasite infection and measured on day 7 after inoculation by Giemsa staining based microscopy; assay type: functional
Plasmodium berghei [6] = assay: Antiplasmodial activity against Plasmodium berghei NK65 infected in mouse assessed as inhibition of inhibition of parasitemia at 20 mg/kg, po treated for 3 consecutive days 24 hrs after parasite infection and measured on day 5 after inoculation by Giemsa staining based microscopy; assay type: functional
Plasmodium berghei [7] = assay: Antiplasmodial activity against Plasmodium berghei NK65 infected in mouse assessed as inhibition of inhibition of parasitemia at 1 mg/kg, po treated for 3 consecutive days 24 hrs after parasite infection and measured on day 5 after inoculation by Giemsa staining based microscopy; assay type: functional
Plasmodium berghei [8] = assay: Antiplasmodial activity against Plasmodium berghei NK65 infected in mouse assessed as inhibition of inhibition of parasitemia at 1 mg/kg, po treated for 3 consecutive days 24 hrs after parasite infection and measured on day 7 after inoculation by Giemsa staining based microscopy; assay type: functional

| SMILES | IC50 (Plasmodium falciparum) | CC50 at 18 h [1] | selectivity ratio [2] | inhibition in vivo at 10 mg/kg (Plasmodium berghei [3]) | inhibition in vivo at 10 mg/kg (Plasmodium berghei [4]) | inhibition in vivo at 20 mg/kg (Plasmodium berghei [5]) | inhibition in vivo at 20 mg/kg (Plasmodium berghei [6]) | inhibition in vivo at 1 mg/kg (Plasmodium berghei [7]) | inhibition in vivo at 1 mg/kg (Plasmodium berghei [8]) |
| --- | --- | --- | --- | --- | --- | --- | --- | --- | --- |
| O=S(=O)(NCCNc1ccnc2cc(Cl)ccc12)c1ccc(Cl)cc1 | 0.68 µM | 116 µM | 171 |  |  |  |  |  |  |
| O=S(=O)(NCCNc1ccnc2cc(Cl)ccc12)c1ccccc1 | 1.63 µM | 122 µM | 74.7 |  |  |  |  |  |  |
| Cc1ccc(S(=O)(=O)NCCNc2ccnc3cc(Cl)ccc23)cc1 | 0.48 µM | 125 µM | 261 |  |  |  |  |  |  |
| O=S(=O)(NCCNc1ccnc2cc(Cl)ccc12)c1ccc(Br)cc1 | 1.21 µM | 88.8 µM | 73.3 |  |  |  |  |  |  |
| O=S(=O)(NCCNc1ccnc2cc(Cl)ccc12)c1ccc(F)cc1 | 1.13 µM | 203 µM | 180 |  |  |  |  |  |  |
| O=S(=O)(NCCCNc1ccnc2cc(Cl)ccc12)c1ccccc1 | 0.35 µM | 275 µM | 784 |  |  |  |  |  |  |
| Cc1ccc(S(=O)(=O)NCCCNc2ccnc3cc(Cl)ccc23)cc1 | 0.28 µM | 95 µM | 339 |  |  |  |  |  |  |
| O=S(=O)(NCCCNc1ccnc2cc(Cl)ccc12)c1ccc(Cl)cc1 | 0.27 µM | 103 µM | 380 |  |  |  |  |  |  |
| O=S(=O)(NCCCNc1ccnc2cc(Cl)ccc12)c1ccc(Br)cc1 | 0.29 µM | 22 µM | 75.8 |  |  |  |  |  |  |
| O=S(=O)(NCCCNc1ccnc2cc(Cl)ccc12)c1ccc(F)cc1 | 0.1 µM | 339 µM | 3390 | 47% | 27% |  |  |  |  |
| O=S(=O)(NCCCCNc1ccnc2cc(Cl)ccc12)c1ccccc1 | 0.4 µM | > 257 µM | > 642 |  |  |  |  |  |  |
| O=S(=O)(NCCCCNc1ccnc2cc(Cl)ccc12)c1ccc(Cl)cc1 | 0.09 µM | 99.2 µM | 1100 | 49% | 33% |  |  |  |  |
| O=S(=O)(NCCCCNc1ccnc2cc(Cl)ccc12)c1ccc(Br)cc1 | 0.15 µM | 14.9 µM | 99.3 |  |  |  |  |  |  |
| O=S(=O)(NCCCCNc1ccnc2cc(Cl)ccc12)c1ccc(F)cc1 | 0.15 µM | 155 µM | 1030 | 30% | 7% |  |  |  |  |
| Cc1ccc(S(=O)(=O)NCCCCNc2ccnc3cc(Cl)ccc23)cc1 | 0.05 µM | 107 µM | 2490 | 27% | 0% |  |  |  |  |
| CCN(CC)CCCC(C)Nc1ccnc2cc(Cl)ccc12 (centres undefined) [CHLOROQUINE] |  |  |  |  |  | 76% | 93% |  |  |
| COc1ncnc(NS(=O)(=O)c2ccc(N)cc2)c1OC [SULFADOXINE] | > 15.5 µM | > 310 µM |  |  |  |  |  | 100% | 96% |
